Assay results: PMC3634413, “Synthesis of Thieno[2,3-b]thiophene Containing Bis-Heterocycles-Novel Pharmacophores” (International Journal of Molecular Sciences, 2013)
Where two headings read alike, the source gives them in different places.

Assays:
PC-3 cell line = experiment: Anticancer (cytotoxic) activity, MTT colorimetric assay; format: cell-based; details: compounds 1–30 μM, n = 3, read-out: IC50 ± SEM, Anticancer Activity (PC-3 Cell line)
Method: Cytotoxic activity of compounds was evaluated in 96-well flat-bottomed microplates by using the standard MTT (3-[4,5-dimethylthiazole-2-yl]-2,5-diphenyl-tetrazolium bromide, MP) colorimetric assay. For this purpose, PC3 cells (Prostrate Cancer) were cultured in Dulbecco’s Modified Eagle Medium, supplemented with 10% of fetal bovine serum (FBS, PAA), 100 IU/mL of penicillin and 100 μg/mL of streptomycin in 75 cm^2 flasks, and kept in 5% CO2 incubator at 37 °C. Exponentially growing cells were harvested, counted with a haemocytometer, and diluted with a particular medium with 5% FBS. Cell culture with the concentration of 1 × 10^5 cells/mL was prepared and introduced (100 μL/well) into 96-well plates. After overnight incubation, medium was removed and 200 μL of fresh medium was added with different concentrations of compounds (1–30 μM). Stock solution, 20 mM of compounds were prepared in 100% DMSO, and the final concentration of DMSO at 30 μM is 0.15%. After 48 h, 200 μL MTT (0.5 mg/mL) was added to each well and incubated further for four hours. Subsequently, 100 μL of DMSO was added to each well. The extent of MTT reduction to formazan within cells was calculated by measuring the absorbance at 570 nm, using a microplate reader (SpectraMax plus, Molecular Devices, Sunnyvale, CA, USA). The cytotoxicity was recorded as concentration causing 50% growth inhibition (IC50) for PC3 cells. The percent inhibition was calculated by using the following formula:
% Inhibition=100-((mean of OD of test compound-mean of OD of negative control)/(mean of OD of positive control-mean of OD of negative control)×100).
The results (% inhibition) were processed by using SoftMax Pro software (Molecular Device, USA).

β-glucuronidase = molecular target: T1, β-glucuronidase (Escherichia coli, UniProt P05804); experiment: In vitro β-glucuronidase inhibition assay; format: biochemical; details: substrate p-nitrophenyl-β-D-glucuronide, 37 °C; NA = not active, failed to show 50% or more inhibition at 500 μM or more; read-out: IC50 ± SEM, β-Glucuronidase Inhibition
T1 construct: purchased Sigma Aldrich G7396-25KU
T1 sequence (P05804 whole entry): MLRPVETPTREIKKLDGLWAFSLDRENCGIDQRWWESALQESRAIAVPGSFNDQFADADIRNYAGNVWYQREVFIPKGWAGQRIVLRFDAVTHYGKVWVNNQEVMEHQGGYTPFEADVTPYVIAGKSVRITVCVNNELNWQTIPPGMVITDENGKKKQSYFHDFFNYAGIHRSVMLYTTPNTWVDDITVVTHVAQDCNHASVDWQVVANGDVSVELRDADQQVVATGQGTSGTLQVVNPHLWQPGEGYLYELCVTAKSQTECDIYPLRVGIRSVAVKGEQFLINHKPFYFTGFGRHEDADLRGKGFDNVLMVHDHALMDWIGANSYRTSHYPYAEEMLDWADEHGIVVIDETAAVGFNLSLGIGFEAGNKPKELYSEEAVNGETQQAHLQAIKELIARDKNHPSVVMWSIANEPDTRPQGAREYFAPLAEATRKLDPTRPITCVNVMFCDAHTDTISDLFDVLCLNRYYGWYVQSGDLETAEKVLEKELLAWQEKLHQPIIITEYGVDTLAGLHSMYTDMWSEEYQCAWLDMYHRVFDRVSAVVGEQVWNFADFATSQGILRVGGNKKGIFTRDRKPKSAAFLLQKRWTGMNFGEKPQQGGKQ
Method: Results are presented here as means ± standard error mean from triplicate (n = 3) observation. IC50 Values were determined by using EZ-FIT, enzyme kinetics software by Perrella Scientific, Inc., USA.
β-Glucuronidase inhibitory activity was determined by the spectrophotometric method by measuring the absorbance at 405 nm of p-nitrophenol formed from the substrate p-nitrophenyl-β-D-glucuronide N1627-250 mg (Sigma Aldrich Co., 3050 spruce street, St. Louis, MO, USA). The total reaction volume was 250 μL. The compound (5 μL) was dissolved in DMSO (100%), which became 2% in the ultimate assay (250 μL) and similar conditions were used for standard (D-saccharic acid 1,4-lactone, Sigma Aldrich Co.). The reaction mixture contained 185 μL of 0.1 M acetate buffer, 5 μL of test compound solution, 10 μL of (1U) enzyme solution (G7396-25KU, Sigma Aldrich) was incubated at 37 °C for 30 min. The plates were read on a multiplate reader (SpectraMax plus 384) at 405 nm after the addition of 50 μL of 0.4 mM p-nitrophenyl-β-D-glucuronide. All assays were performed in triplicate. IC50 Values were calculated by using EZ-Fit software (Perrella Scientific Inc., Amherst, MA, USA). These values are the mean of three independent readings.

[1] = DPPH radical scavenging assay (in vitro antioxidant activity); details: DPPH 300 μM, 30 min at 37 °C, NA = not active, failed to show 50% or more inhibition at 500 μM or more; for IC50: read-out: IC50 ± SEM, DPPH Radical Scavenging Assay
Method: Test samples were allowed to react with stable free radical, 1,1-diphenyl-2-picrylhydrazyl radical (DPPH, Wako Chemicals, Shanghai, China) for half an hour at 37 °C. Various concentrations of test samples (prepared in DMSO) were incubated with DPPH (300 μM; prepared in ethanol). After incubation, decrease in absorption was measured at 515 nm by using a microplate reader (SpectraMax plus 384). Percentage radical scavenging activity (% RSA) of samples was determined in comparison with a DMSO-treated control group. Percentage of radical scavenging activity was calculated by using the formula given in statistical analysis section.
(§1) All reactions were performed in triplicate in a final volume of 200 μL. The results were processed using SoftMax Pro 4.8 software (Molecular Devices, Sunnyvale, CA, USA) and then using MS Excel. The percentage of inhibition was calculated by the following formula:
(§2) % Inhibition=100-(OD of test sample/OD of the control)×100

[2] = molecular target: T2, α-Glucosidase from Saccharomyces cerevisiae (Saccharomyces cerevisiae, UniProt P53341); experiment: In vitro α-glucosidase inhibition assay; format: biochemical; details: pH 6.8, substrate p-nitrophenyl-α-D-glucopyranoside, NA = not active, failed to show 50% or more inhibition at 500 μM or more; for IC50: read-out: IC50 ± SEM, α-Glucosidase Inhibition
T2 construct: purchased Sigma Aldrich G0660-750UN
T2 sequence (P53341 whole entry): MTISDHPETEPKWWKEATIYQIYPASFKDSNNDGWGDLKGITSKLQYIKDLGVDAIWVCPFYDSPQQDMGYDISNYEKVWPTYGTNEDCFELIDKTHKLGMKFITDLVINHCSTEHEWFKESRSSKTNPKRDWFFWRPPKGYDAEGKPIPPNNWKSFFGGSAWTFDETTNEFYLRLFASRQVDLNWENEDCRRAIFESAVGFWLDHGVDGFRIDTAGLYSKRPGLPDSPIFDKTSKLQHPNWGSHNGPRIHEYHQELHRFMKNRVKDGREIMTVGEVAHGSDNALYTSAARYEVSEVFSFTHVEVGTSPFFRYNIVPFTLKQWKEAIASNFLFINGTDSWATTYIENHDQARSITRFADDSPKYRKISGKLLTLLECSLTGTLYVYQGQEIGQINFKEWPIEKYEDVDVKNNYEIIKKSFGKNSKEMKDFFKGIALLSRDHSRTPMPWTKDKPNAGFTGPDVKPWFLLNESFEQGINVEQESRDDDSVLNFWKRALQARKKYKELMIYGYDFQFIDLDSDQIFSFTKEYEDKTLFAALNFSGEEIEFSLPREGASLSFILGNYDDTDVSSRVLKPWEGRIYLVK
Method: α-Glucosidase inhibition assay was performed spectrophotometrically. α-Glucosidase from Saccharomyces cerevisiae (G0660-750UN, Sigma Aldrich), was dissolved in phosphate buffer (pH 6.8, 50 mM). Test compounds were dissolved in 70% DMSO. In 96-well plates, 20 μL of test sample, 20 μL of enzyme and 135 μL of buffer were added and incubated for 15 min at 37 °C. After incubation, 25 μL of p-nitrophenyl-α-D-glucopyranoside (0.7 mM, Sigma Aldrich) was added and change in absorbance was monitored for 30 min at 400 nm. Test compound was replaced with DMSO (7.5% final) in control. Acarbose (Sigma Aldrich) was used as a standard inhibitor [25, 26].
as §1, §2

Compound | melting point | IC50 (PC-3 cell line; Homo sapiens, PC-3, 48 h) | IC50 (β-glucuronidase) | also measured
Cc1c(-c2ccnc(N)n2)sc2sc(-c3ccnc(N)n3)c(-c3ccccc3)c12 [Compound 4c, 4,4′-(3-Methyl-4-Phenylthieno[2,3-b]Thiophene-2,5-Diyl)Dipyrimidin-2-Amine] | 246 °C | – | – | –
Cc1c(-c2ccnc3ncnn23)sc2sc(-c3ccnc4ncnn34)c(-c3ccccc3)c12 [Compound 6, 7,7′-(3-Methyl-4-Phenylthieno[2,3-b]Thiophene-2,5-Diyl)Di-[1,2, 4]Triazolo[1,5-a]Pyrimidine] | 245 °C | > 30 µM | – | –
Cc1c(-c2ccnc(O)n2)sc2sc(-c3ccnc(O)n3)c(-c3ccccc3)c12 [Compound 4a, 4,4′-(3-Methyl-4-Phenylthieno[2,3-b]Thiophene-2,5-Diyl)Dipyrimidin-2-Ol] | 248 °C | > 30 µM | – | –
Cc1c(-c2ccnc3nc4ccccc4n23)sc2sc(-c3ccnc4nc5ccccc5n34)c(-c3ccccc3)c12 [Compound 7, 2,2′-(3-Methyl-4-Phenylthieno[2,3-b]Thiophene-2,5-Diyl)Bis(Benzo[4, 5]Imidazo[1,2-a] Pyrimidine)] | 245 °C | > 30 µM | – | –
3,3′-(3-Methyl-4-Phenylthieno[2,3-b]Thiophene-2,5-Diyl)Bis(1-Phenyl-1H-Pyrazole) [Compound 5b] | – | – | 8.7 ± 0.1 µM | IC50 (PC-3 cell line; 48 h): > 30 µM; IC50 [1]: 165 ± 2.8 µM; IC50 [2]: 58.4 ± 1.2 µM
Cc1c(-c2cc[nH]n2)sc2sc(-c3cc[nH]n3)c(-c3ccccc3)c12 [Compound 5a, 3,3′-(3-Methyl-4-Phenylthieno[2,3-b]Thiophene-2,5-Diyl)Bis(1H-Pyrazole)] | 177 °C | 22.5 ± 0.1 µM | 2.3 ± 0.4 µM | IC50 ± SEM, DPPH Radical Scavenging Assay [1]: no antioxidant activity; IC50 [2]: 22 ± 0.3 µM
Cc1c(-c2ccnc(S)n2)sc2sc(-c3ccnc(S)n3)c(-c3ccccc3)c12 [Compound 4b, 4,4′-(3-Methyl-4-Phenylthieno[2,3-b]Thiophene-2,5-Diyl)Dipyrimidin-2-Thiol] | 247 °C | > 30 µM | 1.3 ± 0.2 µM | IC50 ± SEM, DPPH Radical Scavenging Assay [1]: inactive; IC50 ± SEM, α-Glucosidase Inhibition [2]: inactive
Cc1c(C(=O)C=CN(C)C)sc2sc(C(=O)C=CN(C)C)c(-c3ccccc3)c12 [Compound 3, 1,1′-(3-Methyl-4-Phenylthieno[2,3-b]Thiophene-2,5-Diyl)Bis(3-(Dimethylamino)Prop-2-En-1-One)] | 250 °C | > 30 µM | – | –
CC(=O)N[C@@H](CS)C(=O)O [N-Acetylcysteine, reference compound] | – | – | – | IC50 [1]: 106 ± 1.1 µM
COc1cccc2c1C(=O)c1c(O)c3c(c(O)c1C2=O)C[C@@](O)(C(=O)CO)C[C@@H]3O[C@H]1C[C@H](N)[C@H](O)[C@H](C)O1 [Doxorubicin, reference compound] | – | 0.91 ± 0.1 µM | – | –
O=C(O)[C@@H](O)[C@H]1OC(=O)[C@H](O)[C@H]1O [D-Saccharic acid 1,4-lactone, D-saccharic acid 1,4-lactone, reference compound] | – | – | 45.8 µM | –
